Where “and” joins values, the source holds several entries; their conditions need not be identical. Equal values may be shown once. Inconclusive results and toxic doses are left out. No stated cut-off is given here; in the data, active means T/C of 150% or more; inactive means T/C below 125%.
System: L1210 leukemia ip in BDF1 mice, survival T/C
Test: NCI In Vivo Anticancer Drug Screen. Data for tumor model L1210 Leukemia (intraperitoneal) in B6D2F1 (BDF1) mice
Conditions: endpoint: mean survival time, higher = longer survival
In short: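 Read-out is survival time, reported as the treated-group measurement over the vehicle-control measurement.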

[1] = dose: 100.0 mg/kg/injection, schedule: Q04DX003 (ip), vehicle: saline with Tween-80
[2] = dose: 200.0 mg/kg/injection, schedule: Q04DX003 (ip), vehicle: saline with Tween-80
[3] = dose: 400.0 mg/kg/injection, schedule: Q04DX003 (ip), vehicle: saline with Tween-80
[4] = dose: 100.0 mg/kg/injection, schedule: Q01DX009 (ip), vehicle: Klucel (hydroxypropylcellulose) (HPC)
[5] = dose: 200.0 mg/kg/injection, schedule: Q01DX009 (ip), vehicle: Klucel (hydroxypropylcellulose) (HPC)
[6] = dose: 400.0 mg/kg/injection, schedule: Q01DX009 (ip), vehicle: Klucel (hydroxypropylcellulose) (HPC)
[7] = dose: 100.0 mg/kg/injection, schedule: Q04DX003 (ip), vehicle: Klucel (hydroxypropylcellulose) (HPC)
[8] = dose: 200.0 mg/kg/injection, schedule: Q04DX003 (ip), vehicle: Klucel (hydroxypropylcellulose) (HPC)
[9] = dose: 400.0 mg/kg/injection, schedule: Q04DX003 (ip), vehicle: Klucel (hydroxypropylcellulose) (HPC)
[10] = dose: 100.0 mg/kg/injection, schedule: Q01DX001 (ip), vehicle: saline
[11] = dose: 200.0 mg/kg/injection, schedule: Q01DX001 (ip), vehicle: saline
[12] = dose: 400.0 mg/kg/injection, schedule: Q01DX001 (ip), vehicle: saline
[13] = dose: 100.0 mg/kg/injection, schedule: Q01DX009 (ip), vehicle: saline with Tween-80
[14] = dose: 200.0 mg/kg/injection, schedule: Q01DX009 (ip), vehicle: saline with Tween-80
[15] = dose: 100.0 mg/kg/injection, schedule: Q01DX009 (ip), vehicle: saline
[16] = dose: 100.0 mg/kg/injection, schedule: Q04DX003 (ip), vehicle: saline
[17] = dose: 200.0 mg/kg/injection, schedule: Q01DX009 (ip), vehicle: saline
[18] = dose: 200.0 mg/kg/injection, schedule: Q04DX003 (ip), vehicle: saline
[19] = dose: 400.0 mg/kg/injection, schedule: Q01DX009 (ip), vehicle: saline
[20] = dose: 400.0 mg/kg/injection, schedule: Q04DX003 (ip), vehicle: saline

Measured: T/C

COC(=O)c1ccc[n+](C)c1
inactive: dose: 100.0 mg/kg/injection, schedule: Q04DX002 (ip), vehicle: saline 104 % of control | dose: 200.0 mg/kg/injection, schedule: Q04DX002 (ip), vehicle: saline 101 % of control

CC(=O)OCC1OC(n2cc(C)c(=O)[nH]c2=O)CC1OC(C)=O (centres undefined)
inactive: dose: 684.0 mg/kg/injection, schedule: Q02DX010 (ip), vehicle: other 99 % of control | dose: 1368.0 mg/kg/injection, schedule: Q02DX010 (ip), vehicle: other 105 % of control | dose: 2052.0 mg/kg/injection, schedule: Q02DX010 (ip), vehicle: other 96 % of control

O=C(CBr)NCCCCc1ccc(C(=O)O)cc1
inactive: dose: 10.0 mg/kg/injection, schedule: Q01DX001 (ip), vehicle: carboxymethylcellulose (CMC) 92 % of control | dose: 20.0 mg/kg/injection, schedule: Q01DX001 (ip), vehicle: carboxymethylcellulose (CMC) 100 % of control | dose: 40.0 mg/kg/injection, schedule: Q01DX001 (ip), vehicle: carboxymethylcellulose (CMC) 103 % of control

O=C(N/N=C/c1ccccc1O)c1ccccc1O
inactive: [1] 95 % of control | [2] 92 % of control | [3] 93 % of control

O=C(c1ccccc1)C1OC1(CBr)c1ccccc1 (centres undefined)
inactive: dose: 6.25 mg/kg/injection, schedule: Q01DX009 (ip), vehicle: alcohol 96 % of control | dose: 12.5 mg/kg/injection, schedule: Q01DX009 (ip), vehicle: alcohol 95 % of control | dose: 25.0 mg/kg/injection, schedule: Q01DX009 (ip), vehicle: alcohol 98 % of control | dose: 100.0 mg/kg/injection, schedule: Q01DX001 (ip), vehicle: Klucel (hydroxypropylcellulose) (HPC) 100 % of control | [4] 106 % of control | dose: 200.0 mg/kg/injection, schedule: Q01DX001 (ip), vehicle: Klucel (hydroxypropylcellulose) (HPC) 105 % of control | [5] 98 % of control | dose: 400.0 mg/kg/injection, schedule: Q01DX001 (ip), vehicle: Klucel (hydroxypropylcellulose) (HPC) 106 % of control | [6] 96 % of control

CCCCCCC/C=N/NC(=O)c1ccccc1
inactive: [7] 105 % of control | [8] 109 % of control | [9] 98 % of control

CN(Cc1ccccc1O)C1CCCCC1
inactive: dose: 75.0 mg/kg/injection, schedule: Q01DX001 (ip), vehicle: saline 95 % of control

NC(=S)N/N=C/c1cc(=O)[nH]c(=O)[nH]1
inactive: dose: 50.0 mg/kg/injection, schedule: Q01DX001 (ip), vehicle: saline 93 % of control | [10] 95 % of control | [11] 98 % of control | [12] 95 % of control

c1ccc2c(c1)oc1cc3ccncc3cc12
inactive: [10] 96 % of control | [11] 94 % of control | [12] 102 % of control

CCNC(C)(C)C(SSS)c1cccs1 (centres undefined)
inactive: dose: 100.0 mg/kg/injection, schedule: Q01DX009 (ip), vehicle: saline sonified 96 % of control | dose: 100.0 mg/kg/injection, schedule: Q04DX003 (ip), vehicle: saline sonified 91 % of control | dose: 200.0 mg/kg/injection, schedule: Q01DX009 (ip), vehicle: saline sonified 94 % of control | dose: 200.0 mg/kg/injection, schedule: Q04DX003 (ip), vehicle: saline sonified 87 % of control | dose: 400.0 mg/kg/injection, schedule: Q01DX009 (ip), vehicle: saline sonified 88 % of control | dose: 400.0 mg/kg/injection, schedule: Q04DX003 (ip), vehicle: saline sonified 89 % of control

COc1ccc(C)cc1NC(=O)NNC(=O)c1ccc(Cl)cc1
inactive: dose: 50.0 mg/kg/injection, schedule: Q01DX009 (ip), vehicle: saline with Tween-80 98 % of control | [13] 98 % of control | [14] 98 % of control

O=S(=O)(c1ccccc1)C(CCCC(C(O)(c1ccccc1)c1ccccc1)S(=O)(=O)c1ccccc1)C(O)(c1ccccc1)c1ccccc1 (centres undefined)
inactive: [1] 98 % of control | [2] 100 % of control | [3] 105 % of control

Cc1cc([N+](=O)[O-])ccc1NC(=O)Nc1cccc(F)c1
inactive: [4] 96 % of control | dose: 100.0 mg/kg/injection, schedule: Q04DX002 (ip), vehicle: Klucel (hydroxypropylcellulose) (HPC) 90 % of control | [7] 95 % of control | [5] 94 % of control | dose: 200.0 mg/kg/injection, schedule: Q04DX002 (ip), vehicle: Klucel (hydroxypropylcellulose) (HPC) 88 % of control | [8] 95 % of control | [6] 88 % of control | dose: 400.0 mg/kg/injection, schedule: Q04DX002 (ip), vehicle: Klucel (hydroxypropylcellulose) (HPC) 88 % of control | [9] 95 % of control

O=C(Nc1cccc(Cl)c1)c1cc(N=Nc2ccc([N+](=O)[O-])cc2Cl)ccc1O
inactive: [7] 103 % of control | [8] 104 % of control

C(=NC1CCCCC1)=NC1CCCCC1
inactive: dose: 2.5 mg/kg/injection, schedule: Q04DX003 (ip), vehicle: Klucel (hydroxypropylcellulose) (HPC) 105 % of control | dose: 5.0 mg/kg/injection, schedule: Q04DX003 (ip), vehicle: Klucel (hydroxypropylcellulose) (HPC) 105 % of control | dose: 10.0 mg/kg/injection, schedule: Q04DX003 (ip), vehicle: Klucel (hydroxypropylcellulose) (HPC) 106 % of control

Cc1ccc(Nc2n[nH]c(=S)s2)cc1C
inactive: [13] 93 % of control | [14] 92 % of control | dose: 400.0 mg/kg/injection, schedule: Q01DX009 (ip), vehicle: saline with Tween-80 106 % of control

C/C(CCCC(C)(C)C(=O)O)=N/Nc1ccc([N+](=O)[O-])cc1[N+](=O)[O-]
inactive: dose: 75.0 mg/kg/injection, schedule: Q01DX001 (ip), vehicle: other 93 % of control

C=CS(=O)Cc1ccccc1 (centres undefined)
inactive: dose: 12.5 mg/kg/injection, schedule: Q04DX002 (ip), vehicle: saline 112 % of control | dose: 25.0 mg/kg/injection, schedule: Q04DX002 (ip), vehicle: saline 94 % of control | dose: 50.0 mg/kg/injection, schedule: Q04DX002 (ip), vehicle: saline 98 % of control

O=C(O)CCC(c1ccccc1)(c1ccccc1)c1ccccc1
inactive: dose: 100.0 mg/kg/injection, schedule: Q01DX001 (ip), vehicle: carboxymethylcellulose (CMC) 95 % of control | dose: 200.0 mg/kg/injection, schedule: Q01DX001 (ip), vehicle: carboxymethylcellulose (CMC) 95 % of control | dose: 400.0 mg/kg/injection, schedule: Q01DX001 (ip), vehicle: carboxymethylcellulose (CMC) 101 % of control

CCOC(OCC)OC(C)=O
inactive: [15] 107 % of control | [16] 110 % of control | [17] 98 % of control | [18] 97 % of control | [19] 90 % of control | [20] 103 % of control

CN(C)N=C(c1ccccc1)c1ccccc1
inactive: dose: 50.0 mg/kg/injection, schedule: Q01DX009 (ip), vehicle: Klucel (hydroxypropylcellulose) (HPC) 86 % of control | [4] 97 % of control

C1CC2C(CCCC23OCCO3)C2(C1)OCCO2 (centres undefined)
inactive: [15] 115 % of control and 111 % of control | [16] 94 % of control and 99 % of control | [17] 122 % of control and 107 % of control | [18] 112 % of control and 101 % of control | [19] 108 % of control and 98 % of control | [20] 109 % of control and 97 % of control

COC(=O)C1C2C=CC(C3CCC23)C1C(=O)OC (centres undefined)
inactive: [1] 92 % of control | [2] 91 % of control | [3] 94 % of control

Source: PubChem BioAssay AID248 (DTP/NCI, 2004)
